Our source for the IC50 values is patent US9474790B2, “Stable, protracted GLP-1/glucagon receptor co-agonists for medical use” (Novo Nordisk A/S, priority 2013, dated 2016).

The experiment deals with T1, human GLP-1 receptor (Homo sapiens, UniProt P43220).
T1 construct: expressed in transfected cells; host or cells: BHK cells (parent BHKTS13), clone FCW467-12A/KZ10-1, with CRE luciferase
Kind of experiment: GLP-1 receptor binding, 125I-GLP-1 displacement SPA on isolated membranes. The settings on record: displacement of 125I-GLP-1 from membranes; read-out: IC50 GLP-1R. The method, then:
The purpose of this assay was to test the in vitro receptor binding activity of the glucagon derivatives of the invention. The receptor binding is a measure of affinity of a compound for the human GLP-1 receptor.
The receptor binding of each compound to the human GLP-1 receptor was measured in a displacement binding assay. In this type of assay a labelled ligand (in this case 125I-GLP-1) is bound to the receptor. Each derivative was added in a series of concentrations to isolated membranes containing the human GLP-1 receptor and displacement of the labelled ligand was monitored. The receptor binding was reported as the concentration at which half of the labelled ligand was displaced from the receptor, the IC50 value.
In order to test the binding of the derivatives to albumin, the assay may be performed in a very low concentration of serum albumin (max. 0.001% final assay concentration) as well as in the presence of a higher concentration of serum albumin (2.0% final assay concentration). An increase of the IC50 value, in the presence of serum albumin indicates an affinity to serum albumin and represents a method to predict a protracted pharmacokinetic profile of the test substance in animal models.
The following chemicals were used in the assay: DMEM w/o phenol red (Gibco 11880-028), Pen/strep (Invitrogen 15140-122), G418 (Invitrogen 10131-027), 1 M Hepes (Gibco 15630), EDTA (Invitrogen 15575-038), PBS (Invitrogen 14190-094), fetal calf serum (Invitrogen 16140-071), EGTA, MgCl2 (Merck 1.05832.1000), Tween 20 (Amresco 0850C335), SPA particles (wheat germ agglutinin (WGA) SPA beads, Perkin Elmer RPNQ0001), [125I]-GLP-1]-(7-36)NH2 (produced in-house), OptiPlate™-96 (Perkin Elmer).
Buffer 1 consisted of 20 mM Na-HEPES plus 10 mM EDTA and pH was adjusted to 7.4.
Buffer 2 consisted of 20 mM Na-HEPES plus 0.1 mM EDTA and pH was adjusted to 7.4.
Assay buffer consisted of 50 mM HEPES supplemented with 5 mM EGTA, 5 mM MgCl2, 0.005% Tween 20 and pH was adjusted to 7.4.
The cells used in this assay (clone FCW467-12A) were BHK cells with BHKTS13 as a parent cell line. The cells express the human GLP-1 receptor.
The cells were grown at 5% CO2 in DMEM, 10% fetal calf serum, 1% Pen/Strep (Penicillin/Streptomycin) and 1.0 mg/ml of the selection marker G418. To make a membrane preparation the cells were grown to approximately 80% confluence. The cells were washed twice in phosphate-buffered saline and harvested. The cells were pelleted using a brief centrifugation and the cell pellet was kept on ice. The cell pellet was homogenised with ULTRA-THURRAX dispersing instrument for 20-30 sec in a suitable amount of buffer 1 (e.g. 10 ml). The homogenate was centrifuged for 15 min. The pellet was re-suspended (homogenised) in 10 ml buffer 2 and centrifuged. This step was repeated once more. The resulting pellet was re-suspended in buffer 2 and the protein concentration was determined. The membranes were aliquoted and stored at minus 80° C.
1. For the receptor binding assay, 50 μl of the assay buffer was added to each well of an assay plate.
2. Test compounds were serially diluted to give the following concentrations: 8×10EE-7 M, 8×10EE-8 M, 8×10EE-9 M, 8×10EE-10 M, 8×10EE-11 M, 8×10EE-12 M and 8×10EE-13 M. Twenty-five μl were added to appropriate wells in the assay plate.
3. Cell membrane aliquots were thawed and diluted to their working concentration. Fifty μl were added to each well in the assay plate.
4. WGA SPA beads were suspended in assay buffer at 20 mg/ml. The suspension was diluted to 10 mg/ml in assay buffer just prior to addition to the assay plate. Fifty μl were added to each well in the assay plate.
5. The incubation was started by adding 25 μl of 480 pM solution of [125I]-GLP-1]-(7-36)NH2 to each well of the assay plate. A 25 μl aliquot was reserved for measuring total counts/well.
6. The assay plate was incubated for 2 h at 30° C.
7. The assay plate was centrifuged for 10 min.
8. The assay plate was read in a Perkin Elmer TopCount NXT instrument. […]
A general note: Displacement assays read how much labelled ligand stays bound in the presence of the test substance.

SMILES strings stand for the structures. pIC50: −log10 of the molar value. Numbered stars: 1 amine (or outer) side, 2 acyl side, 3 side chain; on linkers, the order of the positions; unused ones are H or OH. Square brackets hold non-standard residues; d marks the D form. Side chains are listed from the residue outwards. Peptide text beside a SMILES is read from it. * marks the point of attachment. C18 diacid = O=C(O)CCCCCCCCCCCCCCCCC(=O)*; γGlu = O=C(O)[C@H](CCC(=O)[*:2])N[*:1]; AEEA = NCCOCCOCC(=O)O; Aib = CC(C)(N)C(=O)O

T1 sequence (P43220 24-463): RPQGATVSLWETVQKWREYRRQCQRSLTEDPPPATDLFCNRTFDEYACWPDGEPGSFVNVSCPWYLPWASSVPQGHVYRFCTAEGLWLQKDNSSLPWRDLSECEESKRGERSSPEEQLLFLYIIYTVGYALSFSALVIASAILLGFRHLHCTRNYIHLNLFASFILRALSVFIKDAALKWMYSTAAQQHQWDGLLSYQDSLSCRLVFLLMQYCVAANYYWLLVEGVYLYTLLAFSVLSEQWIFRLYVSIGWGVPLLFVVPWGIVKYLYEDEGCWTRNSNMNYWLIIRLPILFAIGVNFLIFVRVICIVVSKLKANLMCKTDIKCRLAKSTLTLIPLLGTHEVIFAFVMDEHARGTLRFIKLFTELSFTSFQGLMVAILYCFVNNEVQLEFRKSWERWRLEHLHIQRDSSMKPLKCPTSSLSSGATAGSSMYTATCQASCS

Turning to `CC(C)C[C@H](NC(=O)[C@H](Cc1ccc(O)cc1)NC(=O)[C@H](CCCCN)NC(=O)[C@H](CO)NC(=O)[C@H](CC(C)C)NC(=O)[C@H](CC(=O)O)NC(=O)[C@H](CO)NC(=O)[C@@H](NC(=O)[C@H](Cc1ccccc1)NC(=O)[C@@H](NC(=O)CNC(=O)[C@H](CCC(N)=O)NC(=O)C(C)(C)NC(=O)[C@@H](N)Cc1c[nH]cn1)[C@@H](C)O)[C@@H](C)O)C(=O)N[C@@H](CC(=O)O)C(=O)N[C@@H](C)C(=O)N[C@@H](CCCNC(=N)N)C(=O)N[C@@H](CCCNC(=N)N)C(=O)N[C@@H](C)C(=O)N[C@@H](CCCNC(=N)N)C(=O)N[C@@H](CC(=O)O)C(=O)N[C@@H](Cc1ccccc1)C(=O)N[C@H](C(=O)N[C@@H](CCC(N)=O)C(=O)N[C@@H](Cc1c[nH]c2ccccc12)C(=O)N[C@@H](CC(C)C)C(=O)N[C@@H](CC(C)C)C(=O)N[C@@H](CCCCNC(=O)COCCOCCNC(=O)COCCOCCNC(=O)CC[C@H](NC(=O)CC[C@H](NC(=O)CC[C@H](NC(=O)CCCCCCCCCCCCCCCCC(=O)O)C(=O)O)C(=O)O)C(=O)O)C(=O)N[C@H](C(N)=O)[C@@H](C)O)C(C)C` [Example 58, N^ε28-[2-[2-[2-[[2-[2-[2-[[(4S)-4-carboxy-4-[[(4S)-4-carboxy-4-[[(4S)-4-carboxy-4-(17-carboxyheptadecanoylamino)butanoyl]amino]butanoyl]amino]butanoyl]amino]ethoxy]ethoxy]acetyl]amino]ethoxy]ethoxy]acetyl]-[Aib2,Leu10,Ala16,Arg20,Leu27,Lys28]-Glucagon amide] (H-H[Aib]QGTFTSDLSKYLDARRARDFVQWLLK([AEEA-AEEA-γGlu-γGlu-γGlu-C18 diacid])T-NH2; N-terminus assumed), the pIC50 (in general, the negative decadic logarithm of the IC50, by convention in mol/L) is 9.70.
As to `CC(C)C[C@H](NC(=O)[C@H](Cc1ccc(O)cc1)NC(=O)[C@H](CCCCN)NC(=O)[C@H](CO)NC(=O)[C@@H](NC(=O)[C@H](CC(=O)O)NC(=O)[C@H](CO)NC(=O)[C@@H](NC(=O)[C@H](Cc1ccccc1)NC(=O)[C@@H](NC(=O)CNC(=O)[C@H](CCC(N)=O)NC(=O)C(C)(C)NC(=O)[C@@H](N)Cc1c[nH]cn1)[C@@H](C)O)[C@@H](C)O)C(C)C)C(=O)N[C@@H](CC(=O)O)C(=O)N[C@@H](C)C(=O)N[C@@H](CCCNC(=N)N)C(=O)N[C@@H](CCCNC(=N)N)C(=O)N[C@@H](C)C(=O)N[C@@H](CCC(N)=O)C(=O)N[C@@H](CC(=O)O)C(=O)N[C@@H](Cc1ccccc1)C(=O)N[C@H](C(=O)N[C@@H](CCC(N)=O)C(=O)N[C@@H](Cc1c[nH]c2ccccc12)C(=O)N[C@@H](CC(C)C)C(=O)N[C@@H](CC(C)C)C(=O)N[C@@H](CCCCNC(=O)COCCOCCNC(=O)COCCOCCNC(=O)CC[C@H](NC(=O)CC[C@H](NC(=O)CC[C@H](NC(=O)CCCCCCCCCCCCCCCCC(=O)O)C(=O)O)C(=O)O)C(=O)O)C(=O)N[C@H](C(N)=O)[C@@H](C)O)C(C)C` [Example 70, N^ε28-[2-[2-[2-[[2-[2-[2-[[(4S)-4-carboxy-4-[[(4S)-4-carboxy-4-[[(4S)-4-carboxy-4-(17-carboxyheptadecanoylamino)butanoyl]amino]butanoyl]amino]butanoyl]amino]ethoxy]ethoxy]acetyl]amino]ethoxy]ethoxy]acetyl]-[Aib2,Val10,Ala16,Leu27,Lys28]-Glucagon amide] (H-H[Aib]QGTFTSDVSKYLDARRAQDFVQWLLK([AEEA-AEEA-γGlu-γGlu-γGlu-C18 diacid])T-NH2), the pIC50 is 9.70.
